Measurements reported in the NIST ThermoML archive (doi:10.1016/j.jct.2004.12.014).

Experiments:
[1] = xn = mol fraction of the nth substance listed; conditions: 318.15 K, 101 kPa, Liquid
[2] = excess molar enthalpy (molar enthalpy of mixing); xn = mol fraction of the nth substance listed; conditions: 318.15 K, 101 kPa, Liquid

CCCCCOC(=O)CC [pentyl propanoate] + CCCCCCCCCCCCC
Conditions	excess molar enthalpy [kcal/mol]	excess molar volume [m3/mol]
[1], x1 = 0.0877	–	2.09e-07
[1], x1 = 0.1642	–	3.71e-07
[1], x1 = 0.2425	–	5.1e-07
[1], x1 = 0.3196	–	6.05e-07
[1], x1 = 0.3804	–	6.65e-07
[1], x1 = 0.4461	–	6.93e-07
[1], x1 = 0.5107	–	7.04e-07
[1], x1 = 0.5701	–	6.95e-07
[1], x1 = 0.6258	–	6.64e-07
[1], x1 = 0.6801	–	6.16e-07
[1], x1 = 0.7305	–	5.62e-07
[1], x1 = 0.7814	–	4.99e-07
[1], x1 = 0.8272	–	4.41e-07
[1], x1 = 0.8719	–	3.34e-07
[1], x1 = 0.9166	–	2.64e-07
[1], x1 = 0.9578	–	1.29e-07
[2], x1 = 0.0691	0.0578	–
[2], x1 = 0.1382	0.105	–
[2], x1 = 0.2136	0.151	–
[2], x1 = 0.2861	0.185	–
[2], x1 = 0.3564	0.209	–
[2], x1 = 0.4222	0.224	–
[2], x1 = 0.4822	0.229	–
[2], x1 = 0.5355	0.228	–
[2], x1 = 0.578	0.222	–
[2], x1 = 0.5956	0.219	–
[2], x1 = 0.6423	0.207	–
[2], x1 = 0.6875	0.193	–
[2], x1 = 0.7398	0.171	–
[2], x1 = 0.7927	0.148	–
[2], x1 = 0.8474	0.118	–
[2], x1 = 0.9008	0.0823	–
[2], x1 = 0.9546	0.0415	–

CCCCOC(=O)CC [butyl propanoate] + CCCCCCCCC
Conditions	excess molar enthalpy [kcal/mol]	excess molar volume [m3/mol]
[1], x1 = 0.0333	–	9.9e-08
[1], x1 = 0.0721	–	1.95e-07
[1], x1 = 0.139	–	3.26e-07
[1], x1 = 0.2059	–	4.35e-07
[1], x1 = 0.2687	–	5.18e-07
[1], x1 = 0.3345	–	5.69e-07
[1], x1 = 0.3947	–	5.89e-07
[1], x1 = 0.4555	–	6.09e-07
[1], x1 = 0.5165	–	6.08e-07
[1], x1 = 0.5747	–	5.79e-07
[1], x1 = 0.6293	–	5.5e-07
[1], x1 = 0.6868	–	5.08e-07
[1], x1 = 0.7408	–	4.43e-07
[1], x1 = 0.7931	–	3.73e-07
[1], x1 = 0.8466	–	3.03e-07
[1], x1 = 0.8978	–	2.16e-07
[1], x1 = 0.9473	–	1.21e-07
[2], x1 = 0.0694	0.0639	–
[2], x1 = 0.1491	0.116	–
[2], x1 = 0.2269	0.159	–
[2], x1 = 0.302	0.189	–
[2], x1 = 0.3723	0.207	–
[2], x1 = 0.4365	0.215	–
[2], x1 = 0.4936	0.215	–
[2], x1 = 0.5364	0.213	–
[2], x1 = 0.5441	0.211	–
[2], x1 = 0.5775	0.21	–
[2], x1 = 0.5891	0.207	–
[2], x1 = 0.6309	0.2	–
[2], x1 = 0.6873	0.184	–
[2], x1 = 0.7512	0.159	–
[2], x1 = 0.8149	0.128	–
[2], x1 = 0.8787	0.089	–
[2], x1 = 0.9424	0.0465	–

CCC(=O)OC [methyl propanoate] + CCCCCCCCC
Conditions	excess molar enthalpy [kcal/mol]	excess molar volume [m3/mol]
[1], x1 = 0.047	–	2.8e-07
[1], x1 = 0.111	–	5.7e-07
[1], x1 = 0.2022	–	9.27e-07
[1], x1 = 0.2873	–	1.164e-06
[1], x1 = 0.3671	–	1.333e-06
[1], x1 = 0.4381	–	1.406e-06
[1], x1 = 0.5037	–	1.425e-06
[1], x1 = 0.5664	–	1.423e-06
[1], x1 = 0.6242	–	1.359e-06
[1], x1 = 0.6768	–	1.278e-06
[1], x1 = 0.7271	–	1.166e-06
[1], x1 = 0.7724	–	1.037e-06
[1], x1 = 0.817	–	8.78e-07
[1], x1 = 0.856	–	7.5e-07
[1], x1 = 0.896	–	5.89e-07
[1], x1 = 0.9315	–	3.93e-07
[1], x1 = 0.9661	–	1.98e-07
[2], x1 = 0.084	0.111	–
[2], x1 = 0.1528	0.19	–
[2], x1 = 0.2279	0.261	–
[2], x1 = 0.2957	0.313	–
[2], x1 = 0.3549	0.35	–
[2], x1 = 0.4111	0.375	–
[2], x1 = 0.4611	0.391	–
[2], x1 = 0.5059	0.4	–
[2], x1 = 0.546	0.402	–
[2], x1 = 0.5832	0.399	–
[2], x1 = 0.6314	0.386	–
[2], x1 = 0.6645	0.371	–
[2], x1 = 0.7099	0.345	–
[2], x1 = 0.7579	0.311	–
[2], x1 = 0.808	0.268	–
[2], x1 = 0.8604	0.212	–
[2], x1 = 0.9122	0.148	–
[2], x1 = 0.9599	0.0769	–

CCCCCCCCCCC [undecane] + CCCOC(=O)CC
Conditions	excess molar enthalpy [kcal/mol]	excess molar volume [m3/mol]
[1], x2 = 0.0413	–	1.53e-07
[1], x2 = 0.0923	–	3.2e-07
[1], x2 = 0.1761	–	5.43e-07
[1], x2 = 0.2561	–	7.24e-07
[1], x2 = 0.3307	–	8.39e-07
[1], x2 = 0.3986	–	9.06e-07
[1], x2 = 0.4638	–	9.37e-07
[1], x2 = 0.5278	–	9.47e-07
[1], x2 = 0.587	–	9.43e-07
[1], x2 = 0.6412	–	8.99e-07
[1], x2 = 0.6944	–	8.36e-07
[1], x2 = 0.744	–	7.6e-07
[1], x2 = 0.7913	–	6.62e-07
[1], x2 = 0.8364	–	5.52e-07
[1], x2 = 0.8799	–	4.45e-07
[1], x2 = 0.9196	–	2.93e-07
[1], x2 = 0.9603	–	1.75e-07
[2], x2 = 0.0636	0.0667	–
[2], x2 = 0.1368	0.127	–
[2], x2 = 0.2052	0.179	–
[2], x2 = 0.2811	0.228	–
[2], x2 = 0.355	0.26	–
[2], x2 = 0.4208	0.276	–
[2], x2 = 0.4796	0.283	–
[2], x2 = 0.5347	0.283	–
[2], x2 = 0.5876	0.276	–
[2], x2 = 0.6318	0.264	–
[2], x2 = 0.6804	0.246	–
[2], x2 = 0.7305	0.219	–
[2], x2 = 0.7842	0.188	–
[2], x2 = 0.8388	0.149	–
[2], x2 = 0.8946	0.104	–
[2], x2 = 0.9488	0.0549	–

CCCCCOC(=O)CC [pentyl propanoate] + CCCCCCCCCCCCCCCCC
Conditions	excess molar enthalpy [kcal/mol]	excess molar volume [m3/mol]
[1], x1 = 0.1083	–	2.44e-07
[1], x1 = 0.2045	–	4.6e-07
[1], x1 = 0.2891	–	6.18e-07
[1], x1 = 0.3649	–	6.95e-07
[1], x1 = 0.4391	–	7.63e-07
[1], x1 = 0.5053	–	8.03e-07
[1], x1 = 0.5658	–	7.98e-07
[1], x1 = 0.6233	–	7.82e-07
[1], x1 = 0.6778	–	7.45e-07
[1], x1 = 0.7277	–	6.88e-07
[1], x1 = 0.7752	–	6.07e-07
[1], x1 = 0.8185	–	5.23e-07
[1], x1 = 0.8587	–	4.3e-07
[1], x1 = 0.8969	–	3.33e-07
[1], x1 = 0.9324	–	2.44e-07
[1], x1 = 0.9677	–	1.14e-07
[2], x1 = 0.1196	0.103	–
[2], x1 = 0.2114	0.166	–
[2], x1 = 0.3026	0.217	–
[2], x1 = 0.3904	0.251	–
[2], x1 = 0.469	0.269	–
[2], x1 = 0.5373	0.273	–
[2], x1 = 0.5951	0.267	–
[2], x1 = 0.6196	0.26	–
[2], x1 = 0.6625	0.247	–
[2], x1 = 0.7073	0.228	–
[2], x1 = 0.7545	0.203	–
[2], x1 = 0.8044	0.177	–
[2], x1 = 0.8552	0.143	–
[2], x1 = 0.9052	0.101	–
[2], x1 = 0.9542	0.0541	–

CCCCCCCCCCCCCCCCC [heptadecane] + CCCOC(=O)CC
Conditions	excess molar enthalpy [kcal/mol]	excess molar volume [m3/mol]
[1], x2 = 0.0801	–	2.62e-07
[1], x2 = 0.1272	–	4.01e-07
[1], x2 = 0.2396	–	6.78e-07
[1], x2 = 0.3349	–	8.74e-07
[1], x2 = 0.4168	–	9.74e-07
[1], x2 = 0.4924	–	1.046e-06
[1], x2 = 0.5597	–	1.06e-06
[1], x2 = 0.6205	–	1.048e-06
[1], x2 = 0.6702	–	1.016e-06
[1], x2 = 0.7236	–	9.42e-07
[1], x2 = 0.7691	–	8.65e-07
[1], x2 = 0.81	–	7.81e-07
[1], x2 = 0.8486	–	6.76e-07
[1], x2 = 0.8816	–	5.66e-07
[1], x2 = 0.9135	–	4.36e-07
[1], x2 = 0.9437	–	3.04e-07
[1], x2 = 0.972	–	1.85e-07
[2], x2 = 0.1025	0.107	–
[2], x2 = 0.2064	0.193	–
[2], x2 = 0.3097	0.268	–
[2], x2 = 0.4012	0.318	–
[2], x2 = 0.4828	0.345	–
[2], x2 = 0.5438	0.354	–
[2], x2 = 0.5906	0.353	–
[2], x2 = 0.6218	0.348	–
[2], x2 = 0.6489	0.34	–
[2], x2 = 0.6819	0.322	–
[2], x2 = 0.7208	0.3	–
[2], x2 = 0.7615	0.276	–
[2], x2 = 0.8015	0.244	–
[2], x2 = 0.8436	0.205	–
[2], x2 = 0.8861	0.163	–
[2], x2 = 0.9283	0.11	–
[2], x2 = 0.9659	0.0516	–

CCOC(=O)CC [ethyl propanoate] + CCCCCCC
Conditions	excess molar enthalpy [kcal/mol]	excess molar volume [m3/mol]
[1], x1 = 0.0401	–	1.58e-07
[1], x1 = 0.0797	–	3.09e-07
[1], x1 = 0.1474	–	5.09e-07
[1], x1 = 0.2182	–	6.76e-07
[1], x1 = 0.2873	–	7.86e-07
[1], x1 = 0.3497	–	8.53e-07
[1], x1 = 0.4098	–	8.95e-07
[1], x1 = 0.5276	–	8.77e-07
[1], x1 = 0.5897	–	8.41e-07
[1], x1 = 0.6453	–	7.71e-07
[1], x1 = 0.701	–	7.23e-07
[1], x1 = 0.7534	–	6.41e-07
[1], x1 = 0.808	–	5.27e-07
[1], x1 = 0.8554	–	4.12e-07
[1], x1 = 0.9045	–	2.9e-07
[1], x1 = 0.9534	–	1.5e-07
[2], x1 = 0.0724	0.0766	–
[2], x1 = 0.1469	0.142	–
[2], x1 = 0.2238	0.196	–
[2], x1 = 0.294	0.234	–
[2], x1 = 0.3653	0.261	–
[2], x1 = 0.4286	0.273	–
[2], x1 = 0.4855	0.277	–
[2], x1 = 0.5345	0.274	–
[2], x1 = 0.5733	0.267	–
[2], x1 = 0.5847	0.264	–
[2], x1 = 0.6302	0.254	–
[2], x1 = 0.682	0.237	–
[2], x1 = 0.7393	0.213	–
[2], x1 = 0.7978	0.181	–
[2], x1 = 0.8563	0.142	–
[2], x1 = 0.9088	0.0966	–
[2], x1 = 0.963	0.0455	–
